For 58 compounds, IC50 results are on record in patent US11873291B2, “Quinoline cGAS antagonist compounds” (ImmuneSensor Therapeutics, Inc., priority 2020, dated 2024).

The IC50 is the point on the concentration scale where inhibition reaches its midpoint.

Structures are written as SMILES.

This assay concerns the target T1, recombinant human cGAS (aa147-522) (Homo sapiens, UniProt Q8N884).
T1 construct: recombinant human cGAS (aa147-522); His6-SUMO (cleaved yes); made in house; host or cells: E. coli BL21/pLys
Briefly: In vitro inhibition assay of cGAS activity (ATP consumption, KinaseGlo Max). As to conditions: Table 2, read-out: cGAS Inhibition Results IC50. In kind it is biochemical. The procedure:
Expression and Purification of Recombinant cGAS Protein: cDNA encoding full-length or amino acids […] of human cGAS was inserted into a modified pET28a vector containing an in-frame His6-SUMO tag. The E. coli strain BL21/pLys harboring the plasmid was induced with 0.5 mM IPTG at 18° C. overnight. His6-SUMO tag was removed by a SUMO protease digestion following purification of the His6-SUMO-cGAS as described previously (Sun et al, 2013, Science 339, 786).
In vitro inhibition assay of cGAS activity: A 60 μL mixture containing 20 mM Tris-Cl, pH 7.5, 5 mM MgCl2, 0.2 mg/mL BSA, 0.01 mg/mL Herring testis DNA, 6.6 μM ATP, 0.1 mM GTP, 1.5 μg/mL of recombinant human cGAS (aa147-522) and serial dilutions of a test compound in DMSO was added to a 96-well plate and incubated at 37° C. for 20 minutes. At the end of reaction, 40 μL of KinaseGlo Max (Promega) was added and chemiluminescence was measured with a luminometer. Inhibitory effect of a compound is evaluated by plotting percentage of ATP consumption against logarithm of compound concentrations. IC50 value was calculated using GraphPad Prism 8 (GraphPad Software, Inc.).
The letter codes for cGAS IC50 include: A (<2 μM); B (2-30 μM); C (>30 μM).
(In general: Kinase-Glo reads ATP consumption through a luciferase reaction.)

T1 sequence (Q8N884 147-522): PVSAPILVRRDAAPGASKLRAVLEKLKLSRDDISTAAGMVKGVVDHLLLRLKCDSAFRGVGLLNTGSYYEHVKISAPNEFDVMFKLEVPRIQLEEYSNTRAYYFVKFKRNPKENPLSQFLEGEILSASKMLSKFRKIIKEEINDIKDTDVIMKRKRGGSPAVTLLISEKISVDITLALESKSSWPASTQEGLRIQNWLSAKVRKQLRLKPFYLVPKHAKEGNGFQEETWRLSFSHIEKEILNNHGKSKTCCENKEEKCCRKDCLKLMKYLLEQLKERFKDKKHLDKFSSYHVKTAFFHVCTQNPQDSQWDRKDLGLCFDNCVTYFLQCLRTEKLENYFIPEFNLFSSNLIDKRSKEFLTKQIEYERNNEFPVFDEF

Regarding `N#Cc1cn(-c2cc(-c3ccccc3)nc3cc(Cl)ccc23)cn1` [I-62], the half-maximal inhibitory concentration (IC50) is more than 30 µM.

For the compound `OCc1cn(-c2cc(-c3ccccc3)nc3cc(Cl)ccc23)cn1` [I-63], the IC50 is more than 30 µM.

In the case of `N#CCc1cn(-c2cc(-c3ccccc3)nc3cc(Cl)ccc23)cn1` [I-64], the half-maximal inhibitory concentration (IC50) is more than 30 µM.

As to `Clc1ccc2c(-n3cncc3C3CC3)cc(-c3ccccc3)nc2c1` [I-65], the IC50 is more than 30 µM.

`CC(=O)c1cn(-c2cc(-c3ccccc3)nc3cc(Cl)ccc23)cn1` [I-66]: the IC50 is more than 30 µM.

Consider `Clc1ccc2c(-c3cn[nH]c3)cc(-c3ccccc3)nc2c1` [I-67], for which the half-inhibitory concentration (IC50) is 2 to 30 µM.

With `Clc1ccc2c(-c3ccn[nH]3)cc(-c3ccccc3)nc2c1` [I-68], the IC50 is more than 30 µM.

Turning to `Clc1ccc2c(-c3cccnc3)cc(-c3ccccc3)nc2c1` [I-69], the IC50 was more than 30 µM.

In the case of `Clc1ccc2c(-c3ccncc3)cc(-c3ccccc3)nc2c1` [I-70], the IC50 was more than 30 µM.

Turning to `Clc1ccc2c(-c3cncnc3)cc(-c3ccccc3)nc2c1` [I-71], the half-inhibitory concentration (IC50) was more than 30 µM.

Consider `Clc1ccc2c(-c3cc[nH]c3)cc(-c3ccccc3)nc2c1` [I-72], for which the IC50 was more than 30 µM.

In the case of `Oc1ccc(-c2cc(-c3ccccc3)nc3cc(Cl)ccc23)cn1` [I-73], the 50% inhibitory concentration (IC50) was more than 30 µM.

Consider `O=C(O)c1cccc(-c2cc(-c3ccn[nH]3)c3ccc(Cl)cc3n2)c1` [I-74, 3-(7-Chloro-4-(1H-pyrazol-5-yl)quinolin-2-yl)benzoic acid], for which the IC50 was more than 30 µM.

Turning to `O=C(O)c1cc(-c2cc(Cl)c3ccc(Cl)c(Cl)c3n2)ccc1O` [I-75, 2-Hydroxy-5-(4,7,8-trichloroquinolin-2-yl)benzoic acid], the half-inhibitory concentration (IC50) was more than 30 µM.

Consider `Clc1ccc2c(-n3ccnc3)cc(N3CCNCC3)nc2c1` [I-76, 7-chloro-4-(1H-imidazol-1-yl)-2-(piperazin-1-yl)quinoline], for which the IC50 was in the range of 2 to 30 µM.

`O=C(CO)N1CCN(c2cc(-n3ccnc3)c3ccc(Cl)cc3n2)CC1` [I-77, 1-(4-(7-chloro-4-(1H-imidazol-1-yl)quinolin-2-yl)piperazin-1-yl)-2-hydroxyethan-1-one]: the half-inhibitory concentration (IC50) was more than 30 µM.

Take `CS(=O)(=O)N1CCN(c2cc(-n3ccnc3)c3ccc(Cl)cc3n2)CC1` [I-78, 7-chloro-4-(1H-imidazol-1-yl)-2-(4-(methylsulfonyl)piperazin-1-yl) quinoline]: the IC50 was more than 30 µM.

For the compound `O=C(O)C1CN(c2cc(-n3ccnc3)c3ccc(Cl)c(Cl)c3n2)CCN1` (stereo not shown) [I-79, 4-(7,8-Dichloro-4-(1H-imidazol-1-yl)quinolin-2-yl)piperazine-2-carboxylic acid], the 50% inhibitory concentration (IC50) was less than 2 µM.

For `CCN1CCN(c2cc(-n3ccnc3)c3ccc(Cl)c(Cl)c3n2)CC1C(=O)O` (stereo not shown) [I-80], the half-maximal inhibitory concentration (IC50) was less than 2 µM.

`O=C(O)C1CN(c2cc(-n3ccnc3)c3ccc(Cl)c(Cl)c3n2)CCN1CCO` (stereo not shown) [I-81]: the IC50 is less than 2 µM.

For the compound `CN1CCN(c2cc(-n3ccnc3)c3ccc(Cl)c(Cl)c3n2)CC1C(=O)O` (stereo not shown) [I-82, 4-(7,8-Dichloro-4-(1H-imidazol-1-yl)quinolin-2-yl)-1-methylpiperazine-2-carboxylic acid], the IC50 is less than 2 µM.

As to `O=C(O)C1CN(c2cc(-n3ccnc3)c3ccc(Cl)c(Cl)c3n2)CCN1C(=O)CO` (stereo not shown) [I-83, 4-(7,8-dichloro-4-(1H-imidazol-1-yl)quinolin-2-yl)-1-(2-hydroxyacetyl)piperazine-2-carboxylic acid], the IC50 was in the range of 2 to 30 µM.

In the case of `O=C1CN(c2cc(-n3ccnc3)c3ccc(Cl)cc3n2)CC(C(=O)O)N1` (stereo not shown) [I-84], the half-inhibitory concentration (IC50) was in the range of 2 to 30 µM.

In the case of `O=C1CN(c2cc(-n3ccnc3)c3ccc(Cl)cc3n2)CCN1` [I-85], the IC50 was less than 2 µM.

In the case of `O=S1(=O)CCN(c2cc(-n3ccnc3)c3ccc(Cl)c(Cl)c3n2)CC1` [I-87], the IC50 fell in the range of 2 to 30 µM.

On to `O=C1CCN(c2cc(-n3ccnc3)c3ccc(Cl)c(Cl)c3n2)CCN1` [I-88], for which the IC50 was 2 to 30 µM.

`O=C(O)C1CN(c2cc(-n3ccnc3)c3ccc(Cl)cc3n2)CCS1` (stereo not shown) [I-89]: the IC50 is 2 to 30 µM.

Consider `O=C(O)C1CN(c2cc(-n3ccnc3)c3ccc(Cl)c(Cl)c3n2)CCO1` (stereo not shown) [I-91], for which the IC50 was less than 2 µM.

With `O=C(O)[C@@H]1COCCN1c1cc(-c2cn[nH]c2)c2ccc(Cl)c(Cl)c2n1` [I-93], the concentration for half-maximal inhibition (IC50) was less than 2 µM.

Turning to `O=C(O)CC1COCCN1c1cc(-n2ccnc2)c2ccc(Cl)c(Cl)c2n1` (stereo not shown) [I-94], the IC50 is less than 2 µM.

With `Clc1ccc2c(-n3ccnc3)cc(N3CCOCC3)nc2c1Cl` [I-95], the half-inhibitory concentration (IC50) was 2 to 30 µM.

Turning to `NS(=O)(=O)OCC1CN(c2cc(-n3ccnc3)c3ccc(Cl)c(Cl)c3n2)CCO1` (stereo not shown) [I-96], the concentration for half-maximal inhibition (IC50) was less than 2 µM.

With `OCC1COCCN1c1cc(-n2ccnc2)c2ccc(Cl)c(Cl)c2n1` (stereo not shown) [I-97], the 50% inhibitory concentration (IC50) was 2 to 30 µM.

For `OCC1CN(c2cc(-n3ccnc3)c3ccc(Cl)c(Cl)c3n2)CCO1` (stereo not shown) [I-98], the IC50 was 2 to 30 µM.

As for `OCC1CN(c2cc(-n3ccnc3)c3ccc(Cl)cc3n2)CCCO1` (stereo not shown) [I-99], the IC50 is 2 to 30 µM.

Turning to `O=S(=O)(NC1CCCN(c2cc(-n3ccnc3)c3ccc(Cl)cc3n2)C1)C1CC1` (stereo not shown) [I-100], the 50% inhibitory concentration (IC50) is less than 2 µM.

For `O=S(=O)(NC1CCCN(c2cc(-n3ccnc3)c3ccc(Cl)cc3n2)C1)c1ncc[nH]1` (stereo not shown) [I-101], the half-inhibitory concentration (IC50) was less than 2 µM.

With `O=S(=O)(NC1CCCN(c2cc(-n3ccnc3)c3ccc(Cl)cc3n2)C1)c1cccnc1` (stereo not shown) [I-102], the IC50 was 2 to 30 µM.

For the compound `Cn1cnc(S(=O)(=O)NC2CCCN(c3cc(-n4ccnc4)c4ccc(Cl)cc4n3)C2)c1` (stereo not shown) [I-103], the IC50 was 2 to 30 µM.

As to `NC(=O)NC1CCCN(c2cc(-n3ccnc3)c3ccc(Cl)cc3n2)C1` (stereo not shown) [I-104, 1-(1-(7-chloro-4-(1H-imidazol-1-yl)quinolin-2-yl)piperidin-3-yl)urea], the IC50 was in the range of 2 to 30 µM.

As for `CS(=O)(=O)NC1CCCN(c2cc(-n3ccnc3)c3ccc(Cl)cc3n2)C1` (stereo not shown) [I-105, N-(1-(7-chloro-4-(1H-imidazol-1-yl)quinolin-2-yl)piperidin-3-yl)methanesulfonamide], the IC50 was 2 to 30 µM.

As to `O=C(CO)NC1CCCN(c2cc(-n3ccnc3)c3ccc(Cl)cc3n2)C1` (stereo not shown) [I-106, N-(1-(7-chloro-4-(1H-imidazol-1-yl)quinolin-2-yl)piperidin-3-yl)-2-hydroxyacetamide], the IC50 fell in the range of 2 to 30 µM.

On to `O=S(=O)(NC1CCCN(c2cc(-n3ccnc3)c3ccc(Cl)cc3n2)C1)c1ccccc1` (stereo not shown) [I-107], for which the IC50 is more than 30 µM.

`NC1CCCN(c2cc(-n3ccnc3)c3ccc(Cl)cc3n2)C1` (stereo not shown) [I-108, 1-(7-chloro-4-(1H-imidazol-1-yl)quinolin-2-yl)piperidin-3-amine]: the concentration for half-maximal inhibition (IC50) was more than 30 µM.

For the compound `Cn1cc(S(=O)(=O)NC2CCCN(c3cc(-n4ccnc4)c4ccc(Cl)cc4n3)C2)cn1` (stereo not shown) [I-109], the IC50 was more than 30 µM.

Take `O=[PH](O)OCC1CCCN(c2cc(-n3ccnc3)c3ccc(Cl)c(Cl)c3n2)C1` (stereo not shown) [I-110]: the half-maximal inhibitory concentration (IC50) is less than 2 µM.

On to `O=[PH](O)OC1CCCN(c2cc(-n3ccnc3)c3ccc(Cl)c(Cl)c3n2)C1` (stereo not shown) [I-111, 1-(7,8-dichloro-4-(1H-imidazol-1-yl)quinolin-2-yl)piperidin-3-yl hydrogen phosphonate], for which the IC50 is less than 2 µM.

With `O=P(O)(O)OC1CCCN(c2cc(-n3ccnc3)c3ccc(Cl)c(Cl)c3n2)C1` (stereo not shown) [I-112, 1-(7,8-dichloro-4-(1H-imidazol-1-yl)quinolin-2-yl)piperidin-3-yl dihydrogen phosphate], the concentration for half-maximal inhibition (IC50) was less than 2 µM.

Regarding `O=P(O)(O)OCC1CCCN(c2cc(-n3ccnc3)c3ccc(Cl)c(Cl)c3n2)C1` (stereo not shown) [I-113, (1-(7,8-dichloro-4-(1H-imidazol-1-yl)quinolin-2-yl)piperidin-3-yl)methyl dihydrogen phosphate], the 50% inhibitory concentration (IC50) was less than 2 µM.

For the compound `O=P(O)(O)CC1CCCN(c2cc(-n3ccnc3)c3ccc(Cl)c(Cl)c3n2)C1` (stereo not shown) [I-114], the IC50 lay within 2 to 30 µM.

For `O=S(=O)(O)C1CCCN(c2cc(-n3ccnc3)c3ccc(Cl)c(Cl)c3n2)C1` (stereo not shown) [I-115], the half-maximal inhibitory concentration (IC50) was less than 2 µM.

Take `CS(=O)(=O)C1CCCN(c2cc(-n3ccnc3)c3ccc(Cl)cc3n2)C1` (stereo not shown) [I-117]: the half-inhibitory concentration (IC50) is 2 to 30 µM.

`NS(=O)(=O)OCC1CCCN(c2cc(-n3ccnc3)c3ccc(Cl)c(Cl)c3n2)C1` (stereo not shown) [I-118]: the IC50 was less than 2 µM.

Consider `NS(=O)(=O)O[C@H]1CCCN(c2cc(-n3ccnc3)c3ccc(Cl)c(Cl)c3n2)C1` [I-119, (S)-1-(7,8-dichloro-4-(1H-imidazol-1-yl)quinolin-2-yl)piperidin-3-yl sulfamate], for which the concentration for half-maximal inhibition (IC50) is 2 to 30 µM.

Turning to `OB(O)C1CCCN(c2cc(-n3ccnc3)c3ccc(Cl)c(Cl)c3n2)C1` (stereo not shown) [I-120, (1-(7,8-Dichloro-4-(1H-imidazol-1-yl)quinolin-2-yl)piperidin-3-yl)boronic acid], the 50% inhibitory concentration (IC50) is less than 2 µM.

As to `Clc1ccc2c(-n3ccnc3)cc(N3CCCCC3)nc2c1Cl` [I-121], the concentration for half-maximal inhibition (IC50) was in the range of 2 to 30 µM.

With `O=C(O)C1CCCN(c2cc(-n3ccnc3)c3ccc(Cl)cc3n2)C1` (stereo not shown) [I-122], the half-maximal inhibitory concentration (IC50) was 2 to 30 µM.

Take `O=C(O)CC1CCCN(c2cc(-n3ccnc3)c3ccc(Cl)cc3n2)C1` (stereo not shown) [I-123, 2-(1-(7-chloro-4-(1H-imidazol-1-yl)quinolin-2-yl)piperidin-3-yl)acetic acid]: the 50% inhibitory concentration (IC50) lay in the range of 2 to 30 µM.
